From ChEMBL document CHEMBL4270559, “Structural insight into the optimization of ethyl 5-hydroxybenzo[g]indol-3-carboxylates and their bioisosteric analogues as 5-LO/m-PGES-1 dual inhibitors able to suppress inflammation” (Eur J Med Chem, 2018) come the findings set out here.

Assay [1] concerns the target T1, Polyunsaturated fatty acid 5-lipoxygenase (Homo sapiens, UniProt P09917).
T1 sequence (P09917 whole entry): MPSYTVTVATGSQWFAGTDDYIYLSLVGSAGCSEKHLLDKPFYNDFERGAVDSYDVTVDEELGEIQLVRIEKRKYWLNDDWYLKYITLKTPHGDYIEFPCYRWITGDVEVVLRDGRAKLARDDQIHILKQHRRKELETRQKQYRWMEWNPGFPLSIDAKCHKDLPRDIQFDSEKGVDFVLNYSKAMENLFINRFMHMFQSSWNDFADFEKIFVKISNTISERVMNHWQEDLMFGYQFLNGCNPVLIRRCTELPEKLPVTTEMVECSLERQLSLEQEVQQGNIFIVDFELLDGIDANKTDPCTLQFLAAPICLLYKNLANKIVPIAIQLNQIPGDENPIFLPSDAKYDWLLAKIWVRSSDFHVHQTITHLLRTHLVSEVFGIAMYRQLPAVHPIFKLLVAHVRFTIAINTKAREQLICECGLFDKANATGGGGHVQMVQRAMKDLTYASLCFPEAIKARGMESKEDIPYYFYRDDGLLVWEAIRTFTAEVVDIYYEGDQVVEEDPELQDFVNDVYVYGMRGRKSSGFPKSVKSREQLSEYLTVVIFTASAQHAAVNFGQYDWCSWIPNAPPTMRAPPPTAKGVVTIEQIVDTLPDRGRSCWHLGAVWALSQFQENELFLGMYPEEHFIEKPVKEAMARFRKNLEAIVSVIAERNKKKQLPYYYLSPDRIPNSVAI
The assay can be described thus: Inhibition of 5-LO in human peripheral blood neutrophils using arachidonic acid as substrate preincubated for 15 mins followed by substrate addition measured after 10 mins by RP-HPLC analysis.

Assay [2] addresses T1, Polyunsaturated fatty acid 5-lipoxygenase. In words: Inhibition of recombinant human 5-LO expressed in Escherichia coli BL21 using arachidonic acid as substrate preincubated for 15 mins followed by substrate addition measured after 10 mins by RP-HPLC analysis.
In the next assay the target is T2, Prostaglandin E synthase (Homo sapiens, UniProt O14684).
T2 sequence (O14684 whole entry): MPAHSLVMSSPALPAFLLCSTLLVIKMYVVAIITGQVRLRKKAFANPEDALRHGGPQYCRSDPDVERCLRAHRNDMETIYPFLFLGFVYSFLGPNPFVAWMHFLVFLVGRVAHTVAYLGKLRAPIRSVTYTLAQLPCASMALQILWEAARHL
In words: Inhibition of mPGES-1 in microsomal membranes isolated from IL-1beta-stimulated human A549 cells preincubated for 15 mins followed by PGH2 addition measured after 1 mins by RP-HPLC analysis. It counts as cell membranes.

Assay [3] deals with T3, Prostaglandin E synthase (Homo sapiens) (UniProt O14684).
T3 sequence (whole entry): T2 sequence (O14684 whole entry)
The assay can be described thus: Inhibition of mPGES-1 in microsomal membranes isolated from IL-1beta-stimulated human A549 cells assessed as residual activity preincubated for 15 mins followed by PGH2 addition measured after 1 mins by RP-HPLC analysis relative to control. It counts as cell membranes.

Assay [4] concerns Mus musculus. The assay can be described thus: Anti-inflammatory activity in carrageenan-induced ICR mouse model of inflammation assessed as reduction in paw edema at 4 mg/kg, ip administered 30 mins prior to carrageenan challenge measured at 4 hrs post carrageenan challenge by plethysmometric method relative to control. The assay is classed as functional. The arrangement: scale not given: the % may be the effect or the level left.

Assay [5] relates to Mus musculus. In words: Anti-inflammatory activity in carrageenan-induced ICR mouse model of inflammation assessed as reduction in paw edema at 4 mg/kg, ip administered 30 mins prior to carrageenan challenge measured at 2 to 6 hrs post carrageenan challenge by plethysmometric method relative to control. The assay is classed as functional. Set-up: scale not given: the % may be the effect or the level left.

In assay [6] the test system is Mus musculus. In words: Anti-inflammatory activity in carrageenan-induced ICR mouse model of inflammation assessed as reduction in paw edema at 20 mg/kg, ip administered 30 mins prior to carrageenan challenge measured at 2 to 6 hrs post carrageenan challenge by plethysmometric method relative to control. The assay is classed as functional. Set-up: scale not given: the % may be the effect or the level left.

In general, IC50 refers to the point on the concentration scale where inhibition reaches its midpoint. For `CCOC(=O)c1c(-c2ccc(Cl)c(Cl)c2)oc2c1cc(O)c1ccccc12`, the half-maximal inhibitory concentration (IC50) in assay [1] was determined as 1240 nM; in assay [2] it was 1700 nM.

Take `CCOC(=O)c1c(C)[nH]c2c1cc(O)c1ccccc12`: the IC50 is 420 nM in assay [1] and 480 nM in assay [2].

In turn, `CCOC(=O)c1c(-c2ccc(Cl)cc2)[nH]c2c1cc(O)c1ccccc12` registered an IC50 at Prostaglandin E synthase of 3400 nM.

Turning to `CCOC(=O)c1c(-c2ccc(Br)cc2F)oc2c1cc(O)c1ccccc12`, the IC50 in assay [1] was 2320 nM; in assay [2], 1060 nM.

For the compound `CCOC(=O)c1c(-c2ccc(Cl)cc2)oc2c1cc(O)c1ccccc12`, the IC50 in assay [1] was determined as 3740 nM; in assay [2], 130 nM.

For the compound `CCOC(=O)c1c(Cc2ccccc2Cl)[nH]c2c1cc(O)c1ccccc12`, the IC50 on Prostaglandin E synthase worked out at 960 nM.

Regarding `CCOC(=O)c1c(Cc2c(Cl)cccc2Cl)[nH]c2c1cc(O)c1ccccc12`, the values for the IC50 in assay [1] and in assay [2] were 1160 nM and 782 nM, respectively. Moreover, the Activity in assay [3] came to 78.1%.

On to `CCOC(=O)c1c(-c2ccccc2F)oc2c1cc(O)c1ccccc12`, for which the IC50 in assay [1] was determined as 670 nM; in assay [2], 370 nM.

For `CCOC(=O)c1c(-c2cccc(C)c2)[nH]c2c1cc(O)c1ccccc12`, the IC50 turned out to be 120 nM in assay [1], 140 nM in assay [2] and 2560 nM on Prostaglandin E synthase.

As for `CCOC(=O)c1c(-c2ccccc2Cl)[nH]c2c1cc(O)c1ccccc12`, the IC50 in assay [1] was determined as 240 nM; in assay [2], 130 nM.

On to `CCOC(=O)c1c(-c2cccc(Br)c2)[nH]c2c1cc(O)c1ccccc12`, for which the values for the IC50 (in assay [1]; in assay [2]; on Prostaglandin E synthase) were 210 nM, 130 nM and 1190 nM, respectively.

With `CCOC(=O)c1c(-c2cc(C)cc(C)c2)[nH]c2c1cc(O)c1ccccc12`, the values for the IC50 (in assay [1]; in assay [2]; against Prostaglandin E synthase) were 300 nM, 120 nM and 7060 nM, respectively.

Consider `CCOC(=O)c1c(-c2cc(Br)ccc2F)[nH]c2c1cc(O)c1ccccc12`, for which the results for the IC50 (in assay [1]; in assay [2]; on Prostaglandin E synthase) were 230 nM, 110 nM and 2130 nM, respectively. In addition, the Activity in the assay with Mus musculus [4] is 73.95%.

Turning to `CCOC(=O)c1c(Cc2c(F)cccc2F)[nH]c2c1cc(O)c1ccccc12`, the IC50 amounted to 94 nM in assay [1], 169 nM in assay [2] and 4200 nM on Prostaglandin E synthase. Moreover, the Activity in the assay with Mus musculus [5] is 81%.

For the compound `CCOC(=O)c1c(-c2cccc(Br)c2)oc2c1cc(O)c1ccccc12`, the IC50 in assay [1] came out at 1640 nM; in assay [2] it was 860 nM.

In the case of `CCOC(=O)c1c(-c2ccccc2C)[nH]c2c1cc(O)c1ccccc12`, the results for the IC50 (in assay [1]; in assay [2]; at Prostaglandin E synthase) were 420 nM, 110 nM and 12700 nM, respectively.

As for `CC(c1cc2ccccc2s1)N(O)C(N)=O` (centres undefined) [ZILEUTON], in the assay with Mus musculus [6], the Activity is reported as 38.2%.

Take `CCOC(=O)c1c(-c2ccccc2Cl)oc2c1cc(O)c1ccccc12`: the IC50 in assay [1] amounted to 1860 nM; in assay [2], 370 nM.

For the compound `CCOC(=O)c1c(Cc2c(C)cc(C)cc2C)[nH]c2c1cc(O)c1ccccc12`, the IC50 in assay [1] amounted to 130 nM; in assay [2], 298 nM; against Prostaglandin E synthase it was 58800 nM.

With `CCOC(=O)c1c(-c2ccccc2OC)[nH]c2c1cc(O)c1ccccc12`, the figures for the 50% inhibitory concentration (IC50) (in assay [1]; in assay [2]; against Prostaglandin E synthase) were 210 nM, 190 nM and 8600 nM, respectively.

Take `CCOC(=O)c1c(-c2cccc(Cl)c2)oc2c1cc(O)c1ccccc12`: the figures for the IC50 in assay [1] and in assay [2] were 3920 nM and 460 nM, respectively.

With `CCOC(=O)c1c(-c2ccccc2Br)oc2c1cc(O)c1ccccc12`, the IC50 is 790 nM in assay [1] and 160 nM in assay [2].

As for `CCOC(=O)c1c(Cc2ccc(Cl)c(Cl)c2)[nH]c2c1cc(O)c1ccccc12`, the IC50 is 45 nM in assay [1], 54 nM in assay [2] and 4200 nM at Prostaglandin E synthase. Besides, the Activity in the assay on Mus musculus [5] was found to be 73%.

`CCOC(=O)c1c(-c2ccc(Br)cc2F)[nH]c2c1cc(O)c1ccccc12`: the values for the IC50 (in assay [1]; in assay [2]; on Prostaglandin E synthase) were 860 nM, 270 nM and 3430 nM, respectively. Also, the Activity with Mus musculus [4] was determined as 69.35%.

As for `CCOC(=O)c1c(-c2cc(Br)ccc2F)oc2c1cc(O)c1ccccc12`, the figures for the IC50 in assay [1] and in assay [2] were 4490 nM and 2030 nM, respectively.

For `CCOC(=O)c1c(-c2ccccc2F)[nH]c2c1cc(O)c1ccccc12`, the IC50 in assay [1] was found to be 150 nM; in assay [2] it was 100 nM. The Activity in assay [3] was determined as 50.6%.

Consider `CCOC(=O)c1c(-c2ccccc2OC)oc2c1cc(O)c1ccccc12`, for which the IC50 was found to be 1360 nM in assay [1] and 220 nM in assay [2].

As to `CCOC(=O)c1c(-c2ccc(Cl)c(Cl)c2)[nH]c2c1cc(O)c1ccccc12`, the IC50 in assay [1] was found to be 130 nM; in assay [2], 130 nM; at Prostaglandin E synthase it was 480 nM. Further, in the assay with Mus musculus [4], the Activity turned out to be 47.3%.

For the compound `CCOC(=O)c1c(-c2ccccc2Br)[nH]c2c1cc(O)c1ccccc12`, the IC50 came to 200 nM in assay [1], 160 nM in assay [2] and 2540 nM against Prostaglandin E synthase.
